These results are taken from patent US9663527B2, “Factor XIa inhibitors” (Merck Sharp & Dohme Corp., priority 2014, dated 2017).

pKi: −log10 of the molar value. Structures can show the parent of a compound that is named as a salt.

purified human Factor XIa, sequence (P03951 388-625): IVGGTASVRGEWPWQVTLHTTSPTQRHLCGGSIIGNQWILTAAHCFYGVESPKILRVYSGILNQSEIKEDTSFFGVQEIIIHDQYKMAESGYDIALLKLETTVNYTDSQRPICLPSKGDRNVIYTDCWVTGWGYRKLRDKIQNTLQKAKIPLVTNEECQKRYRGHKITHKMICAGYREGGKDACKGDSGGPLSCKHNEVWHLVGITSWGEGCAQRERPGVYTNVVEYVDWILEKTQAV
purified human Factor XIa, sequence (P03951 19-387 partner): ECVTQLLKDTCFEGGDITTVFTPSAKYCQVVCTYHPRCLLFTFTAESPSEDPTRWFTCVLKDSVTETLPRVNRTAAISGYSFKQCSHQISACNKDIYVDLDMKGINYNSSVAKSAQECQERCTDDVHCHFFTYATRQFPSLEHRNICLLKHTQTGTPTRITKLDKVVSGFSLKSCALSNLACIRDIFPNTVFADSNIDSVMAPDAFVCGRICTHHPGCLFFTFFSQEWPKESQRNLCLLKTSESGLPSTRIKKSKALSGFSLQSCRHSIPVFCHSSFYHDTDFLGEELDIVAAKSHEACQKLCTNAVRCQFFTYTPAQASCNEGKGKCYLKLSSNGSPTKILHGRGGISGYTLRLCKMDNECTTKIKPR

The assay has as its target purified human Factor XIa (Homo sapiens (Human), UniProt P03951). The experiment in a line: Factor XIa Assay. It counts as biochemical. The following applies: purified human Factor XIa 40 pM, substrate Z-Gly-Pro-Arg-AFC 100 μM, pH 7.4; read-out: hFactor XIa Ki. The method, then: The effectiveness of a compound of the present invention as an inhibitor of Coagulation Factor XIa can be determined using a relevant purified serine protease, and an appropriate synthetic substrate. The rate of hydrolysis of the chromogenic or fluorogenic substrate by the relevant serine protease was measured both in the absence and presence of compounds of the present invention. Assays were conducted at room temperature or at 37° C. […] A decrease in the rate of fluorescence change in the presence of inhibitor is indicative of enzyme inhibition. Such methods are known to one skilled in the art. The results of this assay are expressed as the inhibitory constant, Ki.
Factor XIa determinations were made in 50 mM HEPES buffer at pH 7.4 containing 150 mM NaCl, 5 mM CaCl2, and 0.1% PEG 8000 (polyethylene glycol; JT Baker or Fisher Scientific). Determinations were made using purified human Factor XIa at a final concentration of 40 pM (Sekisui Diagnostics) and the synthetic substrate, Z-Gly-Pro-Arg-AFC, TFA salt (Sigma #C0980) at a concentration of 100 μM.
Activity assays were performed by diluting a stock solution of substrate at least tenfold to a final concentration ≦0.1 Km into a solution containing enzyme or enzyme equilibrated with inhibitor. Times required to achieve equilibration between enzyme and inhibitor were determined in control experiments. Initial velocities of product formation in the absence (Vo) or presence of inhibitor (Vi) were measured. Assuming competitive inhibition, and that unity is negligible compared Km/[S], [I]/e, and [I]/e (where [S], [I], and e respectively represent the total concentrations, of substrate, inhibitor and enzyme), the equilibrium constant (Ki) for dissociation of the inhibitor from the enzyme can be obtained from the dependence of Vo/Vi on [I] shown in the following equation. Vo/Vi=1+[I]/Ki
The term pKi denotes −log10 of the Ki, conventionally taken in molar units. Take `COC(=O)Nc1ccc2c(c1)NC(=O)CCCC[C@H](N1CCc3cc(CN)ccc3C1=O)c1nc-2c[nH]1` [Example 1, Methyl [(7S)-7-[6-(aminomethyl)-1-oxo-3,4-dihydroisoquinolin-2(1H)-yl]-2-oxo-1,2,3,4,5,6,7,9-octahydro-11,8-(azeno)-1,9-benzodiazacyclotridecin-14-yl]carbamate]: the pKi is 8.62.

As for `COC(=O)Nc1ccc2c(c1)NC(=O)CCCC[C@H](N1CCCc3cc(CN)ccc3C1=O)c1nc-2c[nH]1` [Example 2, Methyl [(7S)-7-[7-(aminomethyl)-1-oxo-1,3,4,5-tetrahydro-2H-2-benzazepin-2-yl]-2-oxo-1,2,3,4,5,6,7,9-octahydro-11,8-(azeno)-1,9-benzodiazacyclotridecin-14-yl]carbamate trifluoroacetate], the pKi is 8.41.

Consider `COC(=O)Nc1ccc2c(c1)NC(=O)CCCC[C@H](N1Cc3cc(CN)ccc3C1=O)c1nc-2c[nH]1` [Example 3, Methyl [(7S)-7-[5-(aminomethyl)-1-oxo-1,3-dihydro-2H-isoindol-2-yl]-2-oxo-1,2,3,4,5,6,7,9-octahydro-11,8-(azeno)-1,9-benzodiazacyclotridecin-14-yl]carbamate], for which the negative-log Ki (pKi) is 7.15.

In the case of `NCc1ccc2c(c1)CCN([C@H]1CCCCC(=O)Nc3ccc(F)cc3-c3ccnc1c3)C2=O` [Example 4, 9-(6-(aminomethyl)-1-oxo-3,4-dihydroisoquinolin-2(1H)-yl)-2^5-fluoro-3-aza-1(4,2)-pyridina-2(1,2)-benzenacyclononaphan-4-one], the pKi is 6.77.
